Laboratory results as given in patent US12668594B2, “TYK2 inhibitors and uses thereof” (Sudo Biosciences Limited, priority 2020, dated 2026).

What was measured:
[1] = biological target: T1, TYK2-JH1 (Homo sapiens, UniProt P29597); assay: HTRF-based selectivity assay, TYK2 catalytic domain; assay type: biochemical; conditions: kinase domain (JH1), ATP 20 μM
T1 construct: recombinant purified His or GST-tagged catalytic domain for each enzyme; made in house
T1 sequence (P29597 897-1176 limits assumed): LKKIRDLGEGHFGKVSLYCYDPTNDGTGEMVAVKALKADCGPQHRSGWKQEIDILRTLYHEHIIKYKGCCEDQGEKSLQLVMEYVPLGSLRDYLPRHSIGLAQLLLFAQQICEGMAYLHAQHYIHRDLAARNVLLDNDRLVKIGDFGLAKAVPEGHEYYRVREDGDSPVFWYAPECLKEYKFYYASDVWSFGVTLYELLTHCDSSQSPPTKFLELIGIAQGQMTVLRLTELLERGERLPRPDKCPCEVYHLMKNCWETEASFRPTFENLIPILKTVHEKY
Protocol: (§1) The ability of compounds to inhibit the activity of JAK1, JAK2, JAK3 and TYK2 is measured using a recombinant purified His or GST-tagged catalytic domain for each enzyme (JAK1, JAK2 and TYK2 are generated in-house; JAK3 was purchased from Carna biosciences, Cat #08-046) in an HTRF format biochemical assay. The reactions employs a commercial peptide substrate from Cisbio (Cat #62TK0PEC). The basic assay protocol is as follows: first, 2.5 µL of diluted compounds (4×) in DMSO are dispensed into a 384-well Optiplate. Next, 2.5 μL of enzyme (final concentrations for enzymes are: TYK2-700 ng/mL, JAK1-80.6 ng/mL, JAK2-2.1 ng/mL and JAK3-171.8 ng/mL) is added and incubated at RT for 5-20 min. Finally, 5 μl of mixture of 2×ATP [Final concentration 20 μM for TYK2, 21.43 μM for JAK1, 14.7 μM for JAK2 and 2.12 μM for JAK3]+2× Substrate [Final concentration 217 nM for TYK2, 454.7 nM for JAK1, 200 nM for JAK2 and 257.4 nM for JAK3] is added to 384 well Optiplate. Composition of Kinase assay buffer used in the assay is as follows: HEPES 50 mM, EGTA 1 mM, MgCl2 10 mM, DTT2 mM, Tween-20 0.010 and water. Then the plates are shaken and then incubated at 26.5° C. for 60 min. At the end of the incubation, 10 μL of mixture of 2× detection mix [(EU3+Cryptate (1×)+Streptavidin-XL665 (final concentration: 62.5 nM) (HTRF KinEASE-TK kit Cat #62TK0PEC)] is added to the assay plate, shaken and incubated at 26.5° C. for 60 min. Plates are then read on a Perkin Elmer Envision for HTRF signal (665 nm reading/615 nm reading). After normalization to untreated controls, the percent inhibition of the HTRF signal at each compound concentration is calculated. The plot of percent inhibition versus the log of compound concentration is fit with a 4-parameter dose response equation to calculate IC50 values.

[2] = biological target: T2, JAK2-JH1 (Homo sapiens, UniProt O60674); assay: HTRF-based selectivity assay, JAK2 catalytic domain; assay type: biochemical; conditions: kinase domain (JH1), ATP 14.7 μM
T2 construct: recombinant purified His or GST-tagged catalytic domain for each enzyme; made in house
T2 sequence (O60674 849-1124 limits assumed): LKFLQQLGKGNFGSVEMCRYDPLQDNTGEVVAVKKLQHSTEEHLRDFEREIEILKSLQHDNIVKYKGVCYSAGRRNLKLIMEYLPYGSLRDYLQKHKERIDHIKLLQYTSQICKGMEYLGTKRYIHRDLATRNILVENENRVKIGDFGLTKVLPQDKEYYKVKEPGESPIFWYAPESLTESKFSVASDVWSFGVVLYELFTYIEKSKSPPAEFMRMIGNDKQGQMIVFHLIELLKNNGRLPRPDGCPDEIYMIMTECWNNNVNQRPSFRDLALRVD
Protocol: as §1

[3] = biological target: T3, TYK2 (Homo sapiens, UniProt P29597); assay: HEK-Blue IFNα/β reporter assay (SEAP) for TYK2 pseudokinase inhibition; assay type: cell-based; conditions: HEK-Blue IFNα/β cells, 1 ng/mL human recombinant IFNα
T3 sequence (P29597 whole entry): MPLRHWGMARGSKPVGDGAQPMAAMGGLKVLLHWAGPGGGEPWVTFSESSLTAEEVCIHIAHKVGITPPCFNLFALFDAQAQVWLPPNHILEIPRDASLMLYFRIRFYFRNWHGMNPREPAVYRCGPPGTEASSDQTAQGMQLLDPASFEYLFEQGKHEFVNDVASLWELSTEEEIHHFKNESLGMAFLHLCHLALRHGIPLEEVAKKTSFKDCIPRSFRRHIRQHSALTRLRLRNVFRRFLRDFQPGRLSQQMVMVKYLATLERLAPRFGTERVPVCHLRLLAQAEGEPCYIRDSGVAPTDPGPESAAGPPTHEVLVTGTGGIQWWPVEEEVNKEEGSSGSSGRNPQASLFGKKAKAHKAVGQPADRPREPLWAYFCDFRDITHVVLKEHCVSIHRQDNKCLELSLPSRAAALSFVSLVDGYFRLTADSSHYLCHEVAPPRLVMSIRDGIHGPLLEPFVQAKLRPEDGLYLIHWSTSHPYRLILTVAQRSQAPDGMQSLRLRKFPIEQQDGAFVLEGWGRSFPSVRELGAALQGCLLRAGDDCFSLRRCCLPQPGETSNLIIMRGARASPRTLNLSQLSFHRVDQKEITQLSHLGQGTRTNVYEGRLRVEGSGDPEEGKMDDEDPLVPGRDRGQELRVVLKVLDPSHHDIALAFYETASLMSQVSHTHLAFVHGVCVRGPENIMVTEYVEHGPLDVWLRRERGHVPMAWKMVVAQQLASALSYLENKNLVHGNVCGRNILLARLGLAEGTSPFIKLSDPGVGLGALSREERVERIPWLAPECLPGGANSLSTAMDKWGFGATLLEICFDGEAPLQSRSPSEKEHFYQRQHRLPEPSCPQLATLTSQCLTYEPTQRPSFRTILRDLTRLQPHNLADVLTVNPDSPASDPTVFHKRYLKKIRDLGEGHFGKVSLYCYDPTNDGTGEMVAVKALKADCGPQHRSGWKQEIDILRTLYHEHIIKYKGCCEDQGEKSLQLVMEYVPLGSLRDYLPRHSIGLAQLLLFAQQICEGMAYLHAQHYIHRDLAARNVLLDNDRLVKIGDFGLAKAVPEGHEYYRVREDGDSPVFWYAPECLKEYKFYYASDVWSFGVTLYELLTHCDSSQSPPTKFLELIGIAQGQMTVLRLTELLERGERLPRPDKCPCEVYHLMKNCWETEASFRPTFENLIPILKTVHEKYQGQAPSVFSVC
In short: (§2)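 HEK-Blue cells carrying cytokine receptor and STAT3 or STAT1 SEAP reporter, pretreated 60 min with compound, then stimulated with 10 ng/mL IL-23 (22–24 h) or 1 ng/mL IFNα (16–18 h). SEAP read with QUANTI-Blue; IC50 by non-linear regression versus no-inhibitor and unstimulated controls.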

[4] = biological target: T3, TYK2; assay: HEK-Blue IL-23 reporter assay (SEAP) for TYK2 pseudokinase inhibition; assay type: cell-based; set-up: HEK-Blue™ IL-23 and IFNα/β cells with a stably-integrated cytokine receptor and STAT3 or STAT1; host or cells: HEK-Blue IL-23 / HEK-Blue IFNα/β cells (HEK293 background); conditions: HEK-Blue IL-23 cells, 10 ng/mL human recombinant IL-23, SEAP reporter; read-out: IL23 IC50
In short: as §2

[5] = test system: IL-2; assay: Selectivity assay (SEAP) IL-2 reporter cells; assay type: cell-based; conditions: Homo sapiens, IL-2 reporter cells on HEK293 background, read-out: Selectivity assays (SEAP) nM or E-Max % IL-2
[6] = biological target: T4, JAK1-JH1 (Homo sapiens, UniProt P23458); assay: HTRF-based selectivity assay, JAK1 catalytic domain; assay type: biochemical; conditions: kinase domain (JH1), ATP 21.43 μM
T4 construct: recombinant purified His or GST-tagged catalytic domain for each enzyme; made in house
T4 sequence (P23458 875-1153 limits assumed): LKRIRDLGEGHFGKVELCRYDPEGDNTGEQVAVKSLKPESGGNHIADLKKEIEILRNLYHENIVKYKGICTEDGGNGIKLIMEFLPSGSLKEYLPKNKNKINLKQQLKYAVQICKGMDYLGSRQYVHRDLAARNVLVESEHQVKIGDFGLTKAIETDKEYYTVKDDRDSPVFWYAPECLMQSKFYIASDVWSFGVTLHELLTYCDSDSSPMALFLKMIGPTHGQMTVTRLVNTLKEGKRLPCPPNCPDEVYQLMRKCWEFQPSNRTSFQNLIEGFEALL
Protocol: as §1

[7] = biological target: T5, JAK3-JH1 (Homo sapiens, UniProt P52333); assay: HTRF-based selectivity assay, JAK3 catalytic domain; assay type: biochemical; conditions: kinase domain (JH1), ATP 2.12 μM
T5 construct: recombinant purified His or GST-tagged catalytic domain for each enzyme; purchased Carna biosciences 08-046
T5 sequence (P52333 822-1111 limits assumed): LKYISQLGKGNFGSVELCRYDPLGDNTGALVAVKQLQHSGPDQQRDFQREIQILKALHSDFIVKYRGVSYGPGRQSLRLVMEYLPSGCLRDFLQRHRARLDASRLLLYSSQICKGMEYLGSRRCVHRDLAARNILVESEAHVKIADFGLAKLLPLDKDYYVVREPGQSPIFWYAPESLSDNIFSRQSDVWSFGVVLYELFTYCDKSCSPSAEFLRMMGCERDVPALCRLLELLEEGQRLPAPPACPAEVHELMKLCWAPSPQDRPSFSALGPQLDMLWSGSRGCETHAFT
Protocol: as §1

[8] = test system: IFN-γ; assay: Selectivity assay (SEAP) IFN-γ reporter cells; assay type: cell-based; conditions: Homo sapiens, IFN-γ reporter cells on HEK293 background, read-out: Selectivity assays (SEAP) nM or E-Max % IFN-γ

| IC50 [1] [µM] | IC50 [2] [µM] | IC50 [3] [µM] | IC50 [4] [µM] | IC50 [5] [nM] | IC50 [6] [µM] | IC50 [7] [µM] | IC50 [8] [nM] | Compound |
| --- | --- | --- | --- | --- | --- | --- | --- | --- |
| 30 to 90 | 10 to 30 | < 10 | < 10 | > 90000 | 30 to 90 | < 10 | 30000 to 90000 | O=c1[nH]n(-c2ccccc2)c2cc(Nc3ccc(F)cn3)ncc12 [Compound I-2, 6-((5-fluoropyridin-2-yl)amino)-1-phenyl-1,2-dihydro-3H-pyrazolo[4,3-c]pyridin-3-one] |
| > 90 | > 90 | < 10 | < 10 | > 90000 | > 90 | > 90 | > 90000 | N#Cc1ccc(-n2[nH]c(=O)c3cnc(Nc4ccc(F)cn4)cc32)cc1Cl [Compound I-88, 2-chloro-4-(6-((5-fluoropyridin-2-yl)amino)-3-oxo-2,3-dihydro-1H-pyrazolo[4,3-c]pyridin-1-yl)benzonitrile] |
| > 90 | > 90 | < 10 | < 10 | > 90000 | > 90 | > 90 | > 90000 | Cc1cc(Nc2cc3c(cn2)c(=O)[nH]n3-c2ccc(OCC(F)(F)F)cc2)nc(C)n1 [Compound I-73, 6-((2,6-dimethylpyrimidin-4-yl)amino)-1-(4-(2,2,2-trifluoroethoxy)phenyl)-1,2-dihydro-3H-pyrazolo[4,3-c]pyridin-3-one] |
| > 90 | > 90 | < 10 | < 10 | > 90000 | > 90 | > 90 | > 90000 | COc1cccc(-n2[nH]c(=O)c3cnc(Nc4cc(C)nc(C)n4)cc32)c1F [Compound I-37, 6-((2,6-dimethylpyrimidin-4-yl)amino)-1-(2-fluoro-3-methoxyphenyl)-1,2-dihydro-3H-pyrazolo[4,3-c]pyridin-3-one] |
| – | – | > 90 | < 10 | – | – | – | – | Cc1cc(Nc2cc3c(cn2)c(=O)[nH]n3-c2ccc(C#N)c(Cl)c2)nc(C)n1 [Compound I-87, 2-chloro-4-(6-((2,6-dimethylpyrimidin-4-yl)amino)-3-oxo-2,3-dihydro-1H-pyrazolo[4,3-c]pyridin-1-yl)benzonitrile] |
| – | – | > 90 | > 90 | – | – | – | – | O=c1[nH]n(-c2ccc(Cl)c(Cl)c2)c2cc(Nc3ccc(F)cn3)ncc12 [Compound I-86, 1-(3,4-dichlorophenyl)-6-((5-fluoropyridin-2-yl)amino)-1,2-dihydro-3H-pyrazolo[4,3-c]pyridin-3-one] |
| – | – | < 10 | < 10 | – | – | – | – | Cc1cc(Nc2cc3c(cn2)c(=O)[nH]n3-c2ccc3cn(C)nc3c2)nc(C)n1 [Compound I-121, 6-((2,6-dimethylpyrimidin-4-yl)amino)-1-(2-methyl-2H-indazol-6-yl)-1,2-dihydro-3H-pyrazolo[4,3-c]pyridin-3-one] |
| – | – | 10 to 30 | < 10 | – | – | – | – | Cc1cc(Nc2cc3c(cn2)c(=O)[nH]n3-c2cccc(C#N)c2)nc(C)n1 [Compound I-18, 3-(6-((2,6-dimethylpyrimidin-4-yl)amino)-3-oxo-2,3-dihydro-1H-pyrazolo[4,3-c]pyridin-1-yl)benzonitrile] |
| – | – | < 10 | < 10 | – | – | – | – | Cc1cc(Nc2cc3c(cn2)c(=O)[nH]n3-c2ccccc2F)nc(C)n1 [Compound I-111, 6-((2,6-dimethylpyrimidin-4-yl)amino)-1-(2-fluorophenyl)-1,2-dihydro-3H-pyrazolo[4,3-c]pyridin-3-one] |
| – | – | > 90 | < 10 | – | – | – | – | O=C(Nc1cc2c(cn1)c(=O)[nH]n2-c1cc(Cl)cc(Cl)c1)C1CC1 [Compound I-98, N-(1-(3,5-dichlorophenyl)-3-oxo-2,3-dihydro-1H-pyrazolo[4,3-c]pyridin-6-yl)cyclopropanecarboxamide] |
| – | – | < 10 | < 10 | – | – | – | – | COc1cccc(-n2[nH]c(=O)c3cnc(Nc4cc(C)nc(C)n4)cc32)n1 [Compound I-33, 6-((2,6-dimethylpyrimidin-4-yl)amino)-1-(6-methoxypyridin-2-yl)-1,2-dihydro-3H1-pyrazolo[4,3-c]pyridin-3-one] |
| – | – | 10 to 30 | < 10 | – | – | – | – | CCc1ccccc1-n1[nH]c(=O)c2cnc(Nc3cc(C)nc(C)n3)cc21 [Compound I-108, 6-((2,6-dimethylpyrimidin-4-yl)amino)-1-(2-ethylphenyl)-1,2-dihydro-3H-pyrazolo[4,3-c]pyridin-3-one] |
| – | – | < 10 | < 10 | – | – | – | – | Cc1cc(Nc2cc3c(cn2)c(=O)[nH]n3-c2ccc(C#N)cc2)nc(C)n1 [Compound I-63, 4-(6-((2,6-dimethylpyrimidin-4-yl)amino)-3-oxo-2,3-dihydro-1H-pyrazolo[4,3-c]pyridin-1-yl)benzonitrile] |
| – | – | > 90 | > 90 | – | – | – | – | COc1c(-n2[nH]c(=O)c3cnc(Nc4ccc(F)cn4)cc32)cccc1C(F)(F)F [Compound I-104, 6-((5-fluoropyridin-2-yl)amino)-1-(2-methoxy-3-(trifluoromethyl)phenyl)-1,2-dihydro-3H-pyrazolo[4,3-c]pyridin-3-one] |
| – | – | < 10 | < 10 | – | – | – | – | COc1cccc(-n2[nH]c(=O)c3cnc(NC(=O)C4CC4)cc32)c1 [Compound I-54, N-(1-(3-methoxyphenyl)-3-oxo-2,3-dihydro-1H-pyrazolo[4,3-c]pyridin-6-yl)cyclopropanecarboxamide] |
| – | – | < 10 | < 10 | – | – | – | – | Cc1ccccc1-n1[nH]c(=O)c2cnc(NC(=O)C3CC3)cc21 [Compound I-107, N-(3-oxo-1-(o-tolyl)-2,3-dihydro-1H-pyrazolo[4,3-c]pyridin-6-yl)cyclopropanecarboxamide] |
| – | – | < 10 | < 10 | – | – | – | – | COc1cccc(-n2[nH]c(=O)c3cnc(Nc4ccc(C#N)cn4)cc32)c1 [Compound I-40, 6-((1-(3-methoxyphenyl)-3-oxo-2,3-dihydro-1H-pyrazolo[4,3-c]pyridin-6-yl)amino)nicotinonitrile] |
| – | – | 10 to 30 | < 10 | – | – | – | – | COc1cccc(-n2[nH]c(=O)c3cnc(Nc4ccc(F)cn4)cc32)c1F [Compound I-38, 1-(2-fluoro-3-methoxyphenyl)-6-((5-fluoropyridin-2-yl)amino)-1,2-dihydro-3H-pyrazolo[4,3-c]pyridin-3-one] |
| – | – | 30 to 90 | < 10 | – | – | – | – | COc1cccc(-n2[nH]c(=O)c3c(N)nc(Nc4cc(C)nc(C)n4)cc32)c1 [Compound I-116, 4-amino-6-((2,6-dimethylpyrimidin-4-yl)amino)-1-(3-methoxyphenyl)-1,2-dihydro-3H-pyrazolo[4,3-c]pyridin-3-one] |
